Laboratory results taken from ChEMBL document CHEMBL1201862, “PubChem BioAssay data set” (2004).
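Growth conditions: 96-well plates. Treatment: test compound, 48 hours, 5 concentrations. Analysis: linear interpolation between bracketing concentrations; unreached endpoints set to highest concentration. GI50 is the concentration that inhibits growth by half.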 Calls of active or inactive are those of the source. Rule as the data show it: active = GI50 up to about 1.1 µM and inactive = higher.

Key:
Test in all cases: NCI-60 cell line screen, 48 h
[1] = system: CCRF-CEM
[2] = system: IGROV-1
[3] = system: MOLT-4
[4] = system: SR
[5] = system: SK-OV-3
[6] = system: HOP-92
[7] = system: MDA-MB-231
[8] = system: HT-29
[9] = system: SW-620
[10] = system: 786-0
[11] = system: Hs-578T
[12] = system: NCI/ADR-RES
[13] = system: BT-549
[14] = system: DU-145
[15] = system: SF-295
[16] = system: SK-MEL-2
[17] = system: UACC-62
[18] = system: A498
[19] = system: NCI-H460
[20] = system: HL-60

With `c1ccc(Cc2nc(Cc3n[nH]c(Cc4ccccc4)n3)n[nH]2)cc1` the GI50 [1] was > 100 µM (inactive), the GI50 [2] was > 100 µM (inactive) and the GI50 [3] was > 100 µM (inactive). The GI50 [4] was > 100 µM (inactive), the GI50 [5] was > 100 µM (inactive) and the GI50 [6] was > 100 µM (inactive). The GI50 [7] was > 100 µM (inactive), the GI50 [8] was > 100 µM (inactive) and the GI50 [9] was > 100 µM (inactive). For the same compound, the GI50 [10] was > 100 µM (inactive), the GI50 [11] was 11.8 µM (inactive) and the GI50 [12] was > 100 µM (inactive). For the same compound, the GI50 [13] was > 100 µM (inactive), the GI50 [14] was > 100 µM (inactive) and the GI50 [15] was > 100 µM (inactive). The GI50 [16] was > 100 µM (inactive) and the GI50 [17] was > 100 µM (inactive).
In the case of `O=C(NC(Cc1c[nH]cn1)C(=O)N1CCCC1)C1CCCC1` (stereo not drawn), the GI50 [1] was > 100 µM (inactive), the GI50 [2] was > 100 µM (inactive) and the GI50 [3] was > 100 µM (inactive). For the same compound, the GI50 [4] was 54.1 µM (inactive), the GI50 [5] was > 100 µM (inactive) and the GI50 [6] was > 100 µM (inactive). For the same compound, the GI50 [7] was > 100 µM (inactive), the GI50 [8] was > 100 µM (inactive) and the GI50 [9] was > 100 µM (inactive). For the same compound, the GI50 [18] was 37.9 µM (inactive), the GI50 [10] was > 100 µM (inactive) and the GI50 [11] was 83.8 µM (inactive). For the same compound, the GI50 [12] was > 100 µM (inactive), the GI50 [13] was > 100 µM (inactive) and the GI50 [19] was > 100 µM (inactive). For the same compound, the GI50 [20] was > 100 µM (inactive), the GI50 [14] was > 100 µM (inactive) and the GI50 [15] was > 100 µM (inactive). The GI50 [17] was > 100 µM (inactive).
With `CNc1ncnc2c1cnn2Cc1cn(CCCCO)nn1` the GI50 [1] was > 100 µM (inactive), the GI50 [2] was > 100 µM (inactive) and the GI50 [3] was > 100 µM (inactive). The GI50 [4] was > 100 µM (inactive), the GI50 [5] was > 100 µM (inactive) and the GI50 [6] was > 100 µM (inactive). For the same compound, the GI50 [7] was > 100 µM (inactive), the GI50 [8] was > 100 µM (inactive) and the GI50 [9] was > 100 µM (inactive). The GI50 [18] was > 100 µM (inactive), the GI50 [10] was > 100 µM (inactive) and the GI50 [11] was > 100 µM (inactive). For the same compound, the GI50 [12] was > 100 µM (inactive), the GI50 [13] was > 100 µM (inactive) and the GI50 [19] was > 100 µM (inactive). The GI50 [14] was > 100 µM (inactive), the GI50 [15] was > 100 µM (inactive) and the GI50 [16] was > 100 µM (inactive). For the same compound, the GI50 [17] was > 100 µM (inactive).
`COC(=O)Cc1c(C(=O)CC(C)(C)n2cnc(CCN3C(=O)CCC3=O)c2)[nH]c2ccccc12` was tested, and the GI50 [1] was > 100 µM (inactive), the GI50 [2] was 89.3 µM (inactive) and the GI50 [3] was > 100 µM (inactive). The GI50 [4] was 34.5 µM (inactive), the GI50 [5] was > 100 µM (inactive) and the GI50 [6] was 15 µM (inactive). The GI50 [7] was > 100 µM (inactive), the GI50 [8] was > 100 µM (inactive) and the GI50 [9] was > 100 µM (inactive). For the same compound, the GI50 [10] was > 100 µM (inactive), the GI50 [11] was > 100 µM (inactive) and the GI50 [12] was > 100 µM (inactive). The GI50 [13] was > 100 µM (inactive), the GI50 [19] was > 100 µM (inactive) and the GI50 [14] was > 100 µM (inactive). The GI50 [15] was > 100 µM (inactive), the GI50 [16] was > 100 µM (inactive) and the GI50 [17] was > 100 µM (inactive).
`CCOC(=O)N1C=CC(=C2C(=C3C=CN(C(=O)OCC)C=C3)C(=C3C=CN(C(=O)OCC)C=C3)C2=C2C=CN(C(=O)OCC)C=C2)C=C1` was tested, and the GI50 [2] was 16.1 µM (inactive), the GI50 [3] was 16.9 µM (inactive) and the GI50 [4] was 6.24 µM (inactive). For the same compound, the GI50 [5] was 44 µM (inactive), the GI50 [6] was 0.0637 µM (active) and the GI50 [7] was 10.4 µM (inactive). For the same compound, the GI50 [8] was 22.2 µM (inactive), the GI50 [9] was 17 µM (inactive) and the GI50 [10] was 28.6 µM (inactive). The GI50 [11] was 16 µM (inactive), the GI50 [12] was 22.4 µM (inactive) and the GI50 [13] was 40.5 µM (inactive). The GI50 [19] was 22.9 µM (inactive), the GI50 [20] was 33 µM (inactive) and the GI50 [14] was 35.3 µM (inactive). For the same compound, the GI50 [15] was 21.8 µM (inactive), the GI50 [16] was 26.8 µM (inactive) and the GI50 [17] was 16.9 µM (inactive).
In the case of `Nc1n[n+]([O-])c2cc([N+](=O)[O-])ccc2[n+]1[O-]`, the GI50 [1] was 1.62 µM (inactive), the GI50 [2] was 2.87 µM (inactive) and the GI50 [3] was 0.787 µM (active). The GI50 [4] was 3.18 µM (inactive), the GI50 [5] was 10.5 µM (inactive) and the GI50 [7] was 4.99 µM (inactive). For the same compound, the GI50 [8] was 2.53 µM (inactive), the GI50 [9] was 2.22 µM (inactive) and the GI50 [18] was 15.9 µM (inactive). The GI50 [10] was 4.63 µM (inactive), the GI50 [11] was 11 µM (inactive) and the GI50 [12] was 4.36 µM (inactive). For the same compound, the GI50 [13] was 18.1 µM (inactive), the GI50 [19] was 3.31 µM (inactive) and the GI50 [20] was 2.2 µM (inactive). The GI50 [14] was 16.3 µM (inactive), the GI50 [15] was 10.4 µM (inactive) and the GI50 [16] was 15 µM (inactive). For the same compound, the GI50 [17] was 2.49 µM (inactive).
`COc1ccccc1/N=N/c1c(O)c(S(=O)(=O)O)cc2cc(S(=O)(=O)O)ccc12` was tested, and the GI50 [1] was > 100 µM (inactive), the GI50 [2] was > 100 µM (inactive) and the GI50 [3] was > 100 µM (inactive). The GI50 [4] was > 100 µM (inactive), the GI50 [5] was > 100 µM (inactive) and the GI50 [6] was > 100 µM (inactive). For the same compound, the GI50 [7] was > 100 µM (inactive), the GI50 [8] was > 100 µM (inactive) and the GI50 [9] was > 100 µM (inactive). The GI50 [18] was > 100 µM (inactive), the GI50 [10] was > 100 µM (inactive) and the GI50 [11] was > 100 µM (inactive). For the same compound, the GI50 [12] was > 100 µM (inactive), the GI50 [13] was > 100 µM (inactive) and the GI50 [14] was > 100 µM (inactive). For the same compound, the GI50 [15] was > 100 µM (inactive), the GI50 [16] was 53.5 µM (inactive) and the GI50 [17] was > 100 µM (inactive).
`CCOc1ccc2c(c1)c(=O)c1c(NCCN(CC)CC)ccc3nnn2c31` was tested, and the GI50 [1] was 4.91 µM (inactive), the GI50 [2] was 9.64 µM (inactive) and the GI50 [3] was 3.34 µM (inactive). For the same compound, the GI50 [4] was 10.4 µM (inactive), the GI50 [5] was > 100 µM (inactive) and the GI50 [6] was 29.2 µM (inactive). The GI50 [7] was 18.6 µM (inactive), the GI50 [8] was 12.6 µM (inactive) and the GI50 [9] was 12.6 µM (inactive). The GI50 [18] was > 100 µM (inactive), the GI50 [10] was > 32.8 µM (inactive) and the GI50 [11] was 57 µM (inactive). For the same compound, the GI50 [12] was 12.3 µM (inactive), the GI50 [13] was > 71.3 µM (inactive) and the GI50 [19] was 10.9 µM (inactive). For the same compound, the GI50 [14] was 19.1 µM (inactive), the GI50 [15] was > 35.6 µM (inactive) and the GI50 [16] was > 100 µM (inactive). For the same compound, the GI50 [17] was > 100 µM (inactive).
For `COc1ccc(/C=N/n2c(=O)[nH]c3ccccc3c2=O)cc1`, the GI50 [1] was > 100 µM (inactive), the GI50 [2] was > 100 µM (inactive) and the GI50 [3] was > 100 µM (inactive). The GI50 [4] was > 100 µM (inactive), the GI50 [5] was > 100 µM (inactive) and the GI50 [6] was > 100 µM (inactive). For the same compound, the GI50 [7] was > 100 µM (inactive), the GI50 [8] was > 100 µM (inactive) and the GI50 [9] was > 100 µM (inactive). The GI50 [18] was > 100 µM (inactive), the GI50 [10] was > 100 µM (inactive) and the GI50 [11] was 36.4 µM (inactive). The GI50 [12] was > 100 µM (inactive), the GI50 [13] was > 100 µM (inactive) and the GI50 [19] was > 100 µM (inactive). For the same compound, the GI50 [14] was > 100 µM (inactive), the GI50 [15] was > 100 µM (inactive) and the GI50 [16] was > 100 µM (inactive). The GI50 [17] was > 100 µM (inactive).
For `Cc1ccc(S(=O)(=O)OC2C(C3COC(C)(C)O3)OC3OC(C)(C)OC32)cc1` (stereo not drawn), the GI50 [1] was > 100 µM (inactive), the GI50 [2] was > 100 µM (inactive) and the GI50 [3] was > 100 µM (inactive). For the same compound, the GI50 [4] was > 100 µM (inactive), the GI50 [6] was > 100 µM (inactive) and the GI50 [7] was > 100 µM (inactive). For the same compound, the GI50 [8] was > 100 µM (inactive), the GI50 [9] was > 100 µM (inactive) and the GI50 [18] was > 100 µM (inactive). For the same compound, the GI50 [10] was > 100 µM (inactive), the GI50 [11] was > 100 µM (inactive) and the GI50 [12] was > 100 µM (inactive). The GI50 [13] was > 100 µM (inactive), the GI50 [19] was > 100 µM (inactive) and the GI50 [14] was > 100 µM (inactive). For the same compound, the GI50 [15] was > 100 µM (inactive), the GI50 [16] was > 100 µM (inactive) and the GI50 [17] was > 100 µM (inactive).
For `CCCCC/C(=N\c1[nH]cnc1C(N)=O)OCC`, the GI50 [1] was > 100 µM (inactive), the GI50 [2] was > 100 µM (inactive) and the GI50 [3] was > 100 µM (inactive). For the same compound, the GI50 [4] was > 100 µM (inactive), the GI50 [5] was > 100 µM (inactive) and the GI50 [7] was > 100 µM (inactive). The GI50 [8] was > 100 µM (inactive), the GI50 [9] was > 100 µM (inactive) and the GI50 [18] was > 100 µM (inactive). For the same compound, the GI50 [10] was > 100 µM (inactive), the GI50 [11] was > 100 µM (inactive) and the GI50 [12] was > 100 µM (inactive). For the same compound, the GI50 [13] was > 100 µM (inactive), the GI50 [19] was > 100 µM (inactive) and the GI50 [20] was > 100 µM (inactive). The GI50 [14] was > 100 µM (inactive), the GI50 [15] was > 100 µM (inactive) and the GI50 [16] was > 100 µM (inactive). For the same compound, the GI50 [17] was > 100 µM (inactive).
